Measurements from PubChem BioAssay AID256 (DTP/NCI, 2004).
Inconclusive results and toxic doses are left out. Rule for the calls: active = survival T/C of 150% or more; inactive = T/C below 125% in these data.

System: CD2F1 mice, L1210 leukemia ip, survival T/C
Assay: NCI In Vivo Anticancer Drug Screen. Data for tumor model L1210 Leukemia (intraperitoneal) in CD2F1 (CDF1) mice
Conditions: endpoint: mean survival time, higher = longer survival
Method in brief: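 Transplantable tumor in mice; compound-treated vs vehicle-treated groups. Read-out = treated/control ratio of the measured endpoint.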

[1] = dose: 100.0 mg/kg/injection, schedule: Q04DX003 (ip), vehicle: saline with Tween-80
[2] = dose: 200.0 mg/kg/injection, schedule: Q04DX003 (ip), vehicle: saline with Tween-80
[3] = dose: 400.0 mg/kg/injection, schedule: Q04DX003 (ip), vehicle: saline with Tween-80
[4] = dose: 50.0 mg/kg/injection, schedule: Q04DX002 (ip), vehicle: saline with Tween-80
[5] = dose: 100.0 mg/kg/injection, schedule: Q04DX002 (ip), vehicle: saline with Tween-80
[6] = dose: 200.0 mg/kg/injection, schedule: Q04DX002 (ip), vehicle: saline with Tween-80
[7] = dose: 100.0 mg/kg/injection, schedule: Q01DX009 (ip), vehicle: saline with Tween-80
[8] = dose: 200.0 mg/kg/injection, schedule: Q01DX009 (ip), vehicle: saline with Tween-80
[9] = dose: 25.0 mg/kg/injection, schedule: Q01DX009 (ip), vehicle: saline with Tween-80
[10] = dose: 400.0 mg/kg/injection, schedule: Q01DX009 (ip), vehicle: saline with Tween-80
[11] = dose: 50.0 mg/kg/injection, schedule: Q01DX009 (ip), vehicle: saline with Tween-80
[12] = dose: 100.0 mg/kg/injection, schedule: Q01DX001 (ip), vehicle: saline with Tween-80
[13] = dose: 200.0 mg/kg/injection, schedule: Q01DX001 (ip), vehicle: saline with Tween-80
[14] = dose: 50.0 mg/kg/injection, schedule: Q01DX009 (ip), vehicle: Klucel (hydroxypropylcellulose) (HPC)
[15] = dose: 100.0 mg/kg/injection, schedule: Q01DX009 (ip), vehicle: Klucel (hydroxypropylcellulose) (HPC)

Measured: T/C

CN(C)c1ccc(-c2nnc(-c3ccc(N(C)C)cc3)nn2)cc1
inactive: [1] 93 % of control | [2] 92 % of control | [3] 95 % of control

Nc1cc(=O)[nH]c(=S)[nH]1.[Pd]
inactive: dose: 3.13 mg/kg/injection, schedule: Q04DX003 (ip), vehicle: distilled water + Tween-80 100 % of control | dose: 6.25 mg/kg/injection, schedule: Q04DX003 (ip), vehicle: distilled water + Tween-80 100 % of control | dose: 12.5 mg/kg/injection, schedule: Q04DX003 (ip), vehicle: distilled water + Tween-80 103 % of control | dose: 25.0 mg/kg/injection, schedule: Q04DX003 (ip), vehicle: distilled water + Tween-80 97 % of control | dose: 50.0 mg/kg/injection, schedule: Q04DX003 (ip), vehicle: distilled water + Tween-80 97 % of control | dose: 100.0 mg/kg/injection, schedule: Q04DX003 (ip), vehicle: distilled water + Tween-80 96 % of control | dose: 200.0 mg/kg/injection, schedule: Q04DX003 (ip), vehicle: distilled water + Tween-80 91 % of control

CCCCCCCCCCCCOB(OCCCCCCCCCCCC)OCCCCCCCCCCCC
inactive: [1] 95 % of control | [2] 103 % of control | [3] 94 % of control

CCC(=O)n1nc(-c2ccccc2)c2ccccc21
inactive: dose: 25.0 mg/kg/injection, schedule: Q04DX002 (ip), vehicle: saline with Tween-80 100 % of control | [4] 88 % of control | [5] 96 % of control | [6] 103 % of control

C#CC1(NC(=O)NC(C)(C)C)CCCCC1
inactive: [7] 93 % of control | [8] 86 % of control

COC1=C(OC)C(=O)C(SCCCc2ccccc2)=CC1=O
inactive: dose: 6.25 mg/kg/injection, schedule: Q01DX009 (ip), vehicle: saline with Tween-80 98 % of control | dose: 12.5 mg/kg/injection, schedule: Q01DX009 (ip), vehicle: saline with Tween-80 102 % of control | [9] 93 % of control

O=C(CC(=O)c1ccccc1O)c1ccccc1
inactive: [7] 91 % of control | [8] 88 % of control | [10] 94 % of control

CCCC(C#N)OC(=O)c1ccccc1 (stereo unspecified)
inactive: [9] 96 % of control | [11] 104 % of control | [1] 101 % of control

O=c1oc(-c2cc([N+](=O)[O-])ccc2Cl)nc2ccccc12
inactive: [11] 95 % of control | [7] 90 % of control | [8] 95 % of control

CC1OC(OC2C(O)C(CO)OC(OC3C(C(=O)O)OC(OC4CCC5(C)C(CCC6(C)C5CC=C5C7CC(C)(C)C(O)C(O)C7(CO)C(O)CC56C)C4(C)C)C(OC4OC(CO)C(O)C(O)C4O)C3O)C2O)C(O)C(O)C1O (stereo unspecified)
inactive: [4] 98 % of control | [5] 102 % of control | [6] 107 % of control

CC1=C(C)C(C(=O)O)C1C(=O)O (stereo unspecified)
inactive: [12] 88 % of control | [13] 97 % of control

CCN1c2ccccc2Sc2cc(C=O)ccc21
inactive: [14] 97 % of control | [15] 108 % of control

CC1(C)CSC(=S)N1
inactive: dose: 2.5 mg/kg/injection, schedule: Q01DX009 (ip), vehicle: saline with Tween-80 98 % of control | dose: 5.0 mg/kg/injection, schedule: Q01DX009 (ip), vehicle: saline with Tween-80 95 % of control | dose: 5.0 mg/kg/injection, schedule: Q04DX003 (ip), vehicle: saline with Tween-80 103 % of control | dose: 10.0 mg/kg/injection, schedule: Q01DX009 (ip), vehicle: saline with Tween-80 107 % of control | dose: 10.0 mg/kg/injection, schedule: Q04DX003 (ip), vehicle: saline with Tween-80 92 % of control

COCC1C2CCC(C2)C1COC (stereo unspecified)
inactive: [12] 104 % of control | [13] 92 % of control | dose: 400.0 mg/kg/injection, schedule: Q01DX001 (ip), vehicle: saline with Tween-80 97 % of control

Nc1nc(Cl)nc(Cl)n1
inactive: dose: 12.5 mg/kg/injection, schedule: Q01DX001 (ip), vehicle: saline with Tween-80 102 % of control | dose: 25.0 mg/kg/injection, schedule: Q01DX001 (ip), vehicle: saline with Tween-80 105 % of control | dose: 50.0 mg/kg/injection, schedule: Q01DX001 (ip), vehicle: saline with Tween-80 100 % of control

O=[N+]([O-])c1cc(S(=O)(=O)c2ccc(N3CCCC3)c([N+](=O)[O-])c2)ccc1N1CCCC1
inactive: [7] 102 % of control | [8] 95 % of control | [10] 104 % of control

CC(=O)OC1CCC2(C)C3CCC4(C)C(C(C)CCCC(C)C)CCC4C3C3C(=O)OC32C1 (stereo unspecified)
inactive: dose: 100.0 mg/kg/injection, schedule: Q01DX001 (ip), vehicle: acetone 97 % of control | dose: 100.0 mg/kg/injection, schedule: Q04DX003 (ip), vehicle: acetone 98 % of control | dose: 200.0 mg/kg/injection, schedule: Q01DX001 (ip), vehicle: acetone 101 % of control | dose: 200.0 mg/kg/injection, schedule: Q04DX003 (ip), vehicle: acetone 93 % of control | dose: 400.0 mg/kg/injection, schedule: Q01DX001 (ip), vehicle: acetone 97 % of control | dose: 400.0 mg/kg/injection, schedule: Q04DX003 (ip), vehicle: acetone 90 % of control

CCC[CH2][Sn]([CH2]CCC)[CH2]CCC.CCC[CH2][Sn]([CH2]CCC)[CH2]CCC
inactive: dose: 12.5 mg/kg/injection, schedule: Q04DX003 (ip), vehicle: Klucel (hydroxypropylcellulose) (HPC) 93 % of control | dose: 25.0 mg/kg/injection, schedule: Q04DX003 (ip), vehicle: saline 97 % of control | dose: 50.0 mg/kg/injection, schedule: Q04DX003 (ip), vehicle: saline 97 % of control

O=C(O)c1ccccc1C(=O)Nc1cc(C(F)(F)F)ccc1Cl
inactive: [7] 104 % of control | [1] 105 % of control | [8] 96 % of control | [2] 105 % of control | [3] 111 % of control

CCOC(=O)C(OCC)C1=Cc2ccccc2CC1 (stereo unspecified)
inactive: dose: 12.5 mg/kg/injection, schedule: Q01DX005 (ip), vehicle: Klucel (hydroxypropylcellulose) (HPC) 97 % of control | dose: 25.0 mg/kg/injection, schedule: Q01DX005 (ip), vehicle: Klucel (hydroxypropylcellulose) (HPC) 97 % of control | dose: 50.0 mg/kg/injection, schedule: Q01DX005 (ip), vehicle: Klucel (hydroxypropylcellulose) (HPC) 98 % of control | dose: 100.0 mg/kg/injection, schedule: Q01DX005 (ip), vehicle: Klucel (hydroxypropylcellulose) (HPC) 93 % of control | dose: 200.0 mg/kg/injection, schedule: Q01DX005 (ip), vehicle: Klucel (hydroxypropylcellulose) (HPC) 89 % of control | dose: 400.0 mg/kg/injection, schedule: Q01DX005 (ip), vehicle: Klucel (hydroxypropylcellulose) (HPC) 98 % of control

CCCCCCCCN(C)S(=O)(=O)CCCC
inactive: dose: 6.25 mg/kg/injection, schedule: Q01DX009 (ip), vehicle: water 103 % of control | dose: 12.5 mg/kg/injection, schedule: Q01DX009 (ip), vehicle: water 95 % of control | dose: 25.0 mg/kg/injection, schedule: Q01DX009 (ip), vehicle: water 106 % of control | dose: 50.0 mg/kg/injection, schedule: Q01DX009 (ip), vehicle: water 111 % of control | dose: 100.0 mg/kg/injection, schedule: Q01DX009 (ip), vehicle: water 103 % of control

Cc1ccc(S(=O)(=O)N/N=C/c2ccccc2Cl)cc1
inactive: dose: 12.5 mg/kg/injection, schedule: Q01DX009 (ip), vehicle: Klucel (hydroxypropylcellulose) (HPC) 93 % of control | dose: 25.0 mg/kg/injection, schedule: Q01DX009 (ip), vehicle: Klucel (hydroxypropylcellulose) (HPC) 91 % of control | [14] 90 % of control | [15] 98 % of control
